Measurements: PMC5478822, “In Vitro Anticancer Effect of Gedunin on Human Teratocarcinomal (NTERA-2) Cancer Stem-Like Cells” (BioMed Research International, 2017)
Converted amounts (≈) assume the structure as drawn. Where two headings read alike, the source gives them in different places.

Key:
[1] = system: NTERA-2 cells; experiment: DNA fragmentation analysis; format: cell-based, human; conditions: 48 and 72 h, gedunin 5, 10 and 15 μg/mL
Protocol: DNA fragmentation analysis was carried out according to previously described methods. NTERA-2 cells (2.5 × 10^4 cells/mL) were grown in cell culture flasks and incubated for 24 h. After incubation, flasks were treated with gedunin dissolved in 0.1% DMSO (5, 10, and 15 μg/mL) and further incubated for 48 and 72 h. Negative control for the experiment was 0.1% DMSO in DMEM medium. At the end of the incubation period, cells were trypsinized and cell pellets were obtained. Cell pellets were then incubated for 60 min at 50°C in a 100 μL of lysis buffer (100 mM Tris–HCl, pH 8, 100 mM NaCl, and 10 mM EDTA). Proteinase K (10 μL, 20 mg/mL) was then added to cell lysates and incubated for 30 min at 50°C. After adding 3 μL of 10 mg/mL RNase, the mixture was incubated for 2 h at 50°C. DNA was extracted in phenol chloroform-isoamyl alcohol and 1 μg of isolated DNA from each sample was subjected to 2.0% of agarose gel electrophoresis and visualized under UV using a gel-doc system (Quantum-ST4 1100/20 M).

[2] = system: AKT; experiment: RT-qPCR gene expression, AKT; format: cell-based, human; conditions: NTERA-2 cells, 24 h incubation
Protocol: (§1) NTERA-2 (2.5 × 10^5 cells/mL) cells were cultured in cell culture flasks and treated with gedunin dissolved in 0.1% DMSO (5 and 10 μg/mL) for 24 h. Negative control for the experiment was 0.1% DMSO in DMEM medium. Following incubation, total RNA was extracted with TRIzol® reagent according to the manufacturer's instructions. For reverse transcription, extracted RNA (2 μg) was mixed with 50 ng of random primers and the total volume was made up to 13.5 μL with ultrapure water. Resulting mixture was incubated at 70°C for 5 min and, after incubation, it was kept on ice for 2 min. Complementary DNA (cDNA) was then synthesized by adding 2 μL from the transcription mixture, 5 μL of 5x MMLV-buffer, 5 μL of 10 mM deoxynucleotide mixture, 25 units of RNasin, and 200 units of MMLV-reverse transcriptase in a reaction mixture of 25 μL adjusted by adding ultrapure water and incubated at 37°C for 60 min. Real-time PCR was carried out in Stratagene Mx3000P using a master mix containing SYBR green (MESA Green qPCR Master Mix Plus for SYBR Assay). Primers used for real-time PCR are given in Table 1 and glyceraldehyde-3-phosphate dehydrogenase (GAPDH) was used as the internal housekeeping gene. […] Results of real-time PCR were analysed using the formula 2^−ΔΔCt.

[3] = system: peripheral blood mononuclear cells; experiment: WST-1 cell viability assay; format: cell-based, human; conditions: for IC50: Homo sapiens, PBMC, PBMCs, WST-1 assay; for Cytotoxic effect on normal peripheral blood mononuclear cells: WST-1 cell viability assay
Protocol: Cytotoxic effects of gedunin and positive control (retinoic acid) on normal human cells were evaluated by using human peripheral blood mononuclear cells. Collected blood was diluted with Hank's Buffered Salt Solution (HBSS) and layered onto Histopaque 1077. Blood was then centrifuged at 1000 rpm for 10 min. After centrifugation, opaque interface which contains mononuclear cells was seperated and washed with phosphate buffered saline (PBS). Cells were then counted and cultured (2 × 10^5 cells/mL) in RPMI medium supplemented with 10% fetal bovine serum (FBS), 50 IU/mL penicillin, and 50 μg/mL streptomycin in 24-well plates. Cells were then treated with different concentrations of gedunin and retinoic acid dissolved in 0.1% DMSO (3.125, 6.25, 12.5, 25, and 50 μg/mL) and incubated for 24, 48, and 72 h. Negative control for the experiment was 0.1% DMSO in RPMI medium. WST-1 cell proliferation assay was then carried out according to manufacturer's instructions to determine the cytotoxic effects.

[4] = system: NTERA-2 cells; experiment: Sulforhodamine B (SRB) antiproliferative assay; format: cell-based; conditions: Homo sapiens
Protocol: The NTERA-2 cells were cultured using Dulbecco's Modified Eagle's Medium (DMEM), supplemented with 10% fetal bovine serum (FBS), 50 IU/mL penicillin, and 50 μg/mL streptomycin. Cells were incubated at 37°C with 5% CO2 and 95% humidity.
Prior to the SRB assay, NTERA-2 cells were grown in a 75 cm[…] flasks. Upon confluency, cells were trypsinized and seeded into 96-well plates (5 × 10^3 cells/well). After 24 h incubation, cells were treated with various concentrations (3.125, 6.25, 12.5, 25, and 50 μg/mL) of gedunin and retinoic acid (positive control) dissolved in 0.1% dimethyl sulfoxide (DMSO) and incubated for 24, 48, and 72 h. Negative control for the experiment was 0.1% DMSO in DMEM medium. Then the cells were fixed with 20 μL of 50% (trichloroacetic acid) TCA and incubated for further 1 h at 4°C. After incubation, cells were washed five times with tap water and stained with 50 μL of 0.4% (w/v) SRB solution. After 20 min of incubation, SRB solution was poured off and unbound dye was removed by washing five times with 1% acetic acid. Bound SRB dye was then solubilized by adding 100 μL of Tris base solution. The plates were shaken for 1 h and absorbance was read at 540 nm OD.

[5] = system: HSF1; experiment: RT-qPCR gene expression, HSF1; format: cell-based, human; conditions: NTERA-2 cells, 24 h incubation
Protocol: as §1

[6] = system: caspase 3/7 in NTERA-2 cells; experiment: Caspase 3/7 assay; format: cell-based, human; conditions: 24 h
Protocol: NTERA-2 cells (2.5 × 10^4 cells/mL) were cultured in 96-well cell culture plates and incubated for 24 h. After incubation, cells were treated with gedunin dissolved in 0.1% DMSO (2.5, 5, and 10 μg/mL) and incubated for further 24 h. Negative control for the experiment was 0.1% DMSO in DMEM medium. Caspase 3/7 reagent (100 μL) was then added to each well and incubated for 1 h in dark at 37°C. Luminescence of each well was measured by a plate reader.

[7] = system: HSP90; experiment: RT-qPCR gene expression, HSP90; format: cell-based, human; conditions: NTERA-2 cells, 5 and 10 μg/mL, 24 h
Protocol: as §1

[8] = system: NTERA-2 cells; experiment: Acridine orange/ethidium bromide (AO/EB) staining; format: cell-based, human; conditions: NTERA-2 cells, 2.5, 5 and 10 μg/mL, 24 h
Protocol: NTERA-2 cells (2.5 × 10^4 cells/mL) were cultured on cell culture treated coverslips and incubated for 24 h. Subsequently, cells were exposed to different concentrations of gedunin dissolved in 0.1% DMSO (2.5, 5, and 10 μg/mL) and incubated for 24 h. Negative control for the experiment was 0.1% DMSO in DMEM medium. After incubation, cells were fixed using 4% formaldehyde in the dark for 10 min. Cells were then washed with PBS and stained with ethidium bromide (100 μg/mL) and acridine orange (100 μg/mL) solutions (1 : 1 v/v). Excess dye was then washed off with PBS and cell morphology was observed using a fluorescence microscope (BX51 TRF, Olympus Corporation, Tokyo, Japan).

[9] = system: p53; experiment: RT-qPCR gene expression, p53; format: cell-based, human; conditions: NTERA-2 cells, 5 and 10 μg/mL, 24 h
Protocol: as §1

[10] = system: NTERA-2 cells; experiment: TUNEL assay; format: cell-based, human; conditions: NTERA-2 cells, 2.5, 5 and 10 μg/mL, 24 h
Protocol: Terminal deoxynucleotidyl transferase-mediated dUTP-biotin nick-end labeling (TUNEL) staining was carried out to confirm in situ chromatin fragmentation. Cells cultured on coverslips (2.5 × 10^4 cells/mL) were treated with different concentrations of gedunin dissolved in 0.1% DMSO (2.5, 5, and 10 μg/mL) and incubated for 24 h. Negative control for the experiment was 0.1% DMSO in DMEM medium. TUNEL staining was carried out according to manufacturer's instructions. Briefly, cells were fixed with 4% formaldehyde and permeabilized with 0.2% Triton X-100. Equilibration buffer (100 μL) and TdT reaction mix to label DNA were added and incubated for further 60 min in a humidified chamber. Then coverslips were immersed in 2x SSC buffer for 15 min followed by immersing in 0.3% H2O2 for 3 min. Finally, labeled fragments were incubated with streptavidin horseradish peroxidase and visualized after diaminobenzidine (DAB) color development where dark brown spots confirmed apoptosis.

[11] = system: survivin; experiment: RT-qPCR gene expression, survivin; format: cell-based, human; conditions: NTERA-2 cells, both doses tested, 24 h
Protocol: as §1

[12] = system: Bax; experiment: RT-qPCR gene expression, Bax; format: cell-based, human; conditions: NTERA-2 cells, both doses tested, 24 h
Protocol: as §1

[13] = system: ErbB2; experiment: RT-qPCR gene expression, ErbB2; format: cell-based, human; conditions: NTERA-2 cells, 24 h incubation
Protocol: as §1

[14] = system: Cdc37; experiment: RT-qPCR gene expression, Cdc37; format: cell-based, human; conditions: NTERA-2 cells, 5 and 10 μg/mL, 24 h
Protocol: as §1

[15] = system: NTERA-2 cells; experiment: Nitrobluetetrazolium reactive oxygen species (ROS) assay; format: cell-based, human; conditions: 24 h after incubation, 2.5, 5 and 10 μg/mL
Protocol: ROS measurement in gedunin treated NTERA-2 cells was carried out using previously described methods. Cells (2 × 10^3) were cultured in 96-well cell culture plates and incubated for 24 h. After incubation cells were treated with gedunin (2.5, 5, and 10 μg/mL) and incubated for further 24 h. Cells were then incubated with nitrobluetetrazolium (1 mg/mL) for 1 h at 37°C. After the incubation 100 μL of DMSO was added to solubilize blue formazan, plates were shaken for 10 min at room temperature, and the absorbance was read at 620 nm.

[16] = 24 h incubation, read-out: IC50 in peripheral blood mononuclear cells, 24 h
[17] = 48 h incubation, read-out: IC50 in peripheral blood mononuclear cells, 48 h
[18] = 72 h incubation, read-out: IC50 in peripheral blood mononuclear cells, 72 h
[19] = NTERA2, 24 h incubation, read-out: IC50 in NTERA-2 cells, 24 h
[20] = NTERA2, 48 h incubation, read-out: IC50 in NTERA-2 cells, 48 h
[21] = NTERA2, 72 h incubation, read-out: IC50 in NTERA-2 cells, 72 h

SMILES: CC(=O)O[C@@H]1C[C@H]2C(C)(C)C(=O)C=C[C@]2(C)[C@H]2CC[C@@]3(C)[C@H](c4ccoc4)OC(=O)[C@H]4O[C@]43[C@@]21C [Gedunin]
- DNA fragmentation (laddering pattern) [1]: smeared laddering pattern of DNA was observed
- Expression of AKT (real-time PCR) [2]: Significant downregulation
- IC50 [3, 16]: > 100 µg/mL
- IC50 [3, 17]: > 100 µg/mL
- IC50 [3, 18]: > 100 µg/mL
- Cytotoxic effect on normal peripheral blood mononuclear cells [3]: minimal effect on PBMCs
- Cytotoxic effect on normal peripheral blood mononuclear cells ([3]; listed as gedunin): not significant
- IC50 [4, 19]: 14.6 µg/mL (≈ 30.2 µM)
- IC50 [4, 20]: 8.49 µg/mL (≈ 17.6 µM)
- IC50 [4, 21]: 6.55 µg/mL (≈ 13.6 µM)
- Expression of HSF1 (real-time PCR) [5]: Significant downregulation
- Fold change in caspase 3/7 activity ([6]; 2.5 μg/mL): 1.08 fold
- Fold change in caspase 3/7 activity ([6]; 5 μg/mL): 1.2 fold
- Fold change in caspase 3/7 activity ([6]; 10 μg/mL): 1.41 fold
- Expression of HSP90 (real-time PCR) [7]: downregulation
- Morphological changes after AO/EB staining [8]: morphological changes of apoptosis
- Expression of p53 (real-time PCR) [9]: upregulation of p53
- TUNEL-positive nuclei [10]: increase in the number of TUNEL-positive nuclei
- Expression of survivin (real-time PCR) [11]: downregulation
- Expression of Bax (real-time PCR) [12]: Upregulation of Bax
- Expression of ErbB2 (real-time PCR) [13]: Significant downregulation
- Expression of Cdc37 (real-time PCR) [14]: downregulation
- ROS production [15]: increase in ROS production

SMILES: CC1=C(/C=C/C(C)=C/C=C/C(C)=C/C(=O)O)C(C)(C)CCC1 [Retinoic acid, retinoic acid, reference compound]
- DNA fragmentation (laddering pattern) [1]: smeared laddering pattern of DNA was observed
- IC50 [3, 16]: > 100 µg/mL
- IC50 [3, 17]: > 100 µg/mL
- IC50 [3, 18]: > 100 µg/mL
- IC50 [4, 19]: 14.4 µg/mL (≈ 47.8 µM)
- IC50 [4, 20]: 9.17 µg/mL (≈ 30.5 µM)
- IC50 [4, 21]: 6.87 µg/mL (≈ 22.9 µM)

SMILES: CC1=CC(=O)C(C(C)C)=CC1=O [thymoquinone]
- DNA fragmentation (laddering pattern) [1]: smeared laddering pattern of DNA was observed
